Laboratory results taken from patent publication US12378256B2, “Heterocyclic compound” (Takeda Pharmaceutical Company Limited, priority 2017, dated 2025).

Columns and labels:
[1] = Rat PK test (cassette dosing); type: in vivo; conditions: male SD rats, plasma; for Tmax: oral 1 mg/kg and iv 0.1 mg/kg given, route not stated for Tmax, read-out: Tmax (time to reach maximum plasma concentration); for clearance / MRT: intravenous 0.1 mg/kg; for clearance: read-out: CL total (total clearance) (converted); for MRT: read-out: MRT iv (mean residence time)
Description: As the rat, 8-week-old male SD rats (Japan SLC, Inc.) were used. They were fed on a solid commercially available diet (CE-2, CLEA Japan, Inc.) and allowed to freely ingest tap water as the drinking water. An intravenous administration solution for the rats was prepared by weighing a test compound, dissolving same in dimethylacetamide (DMA) (Wako Pure Chemical Industries, Ltd.), adding the same volume of 1,3-butanediol (Wako Pure Chemical Industries, Ltd.) and mixing by stirring to give a DMA:1,3-butanediol (1:1, v/v) solution. An oral administration solution was prepared by weighing a test compound, pulverizing same in an agate mortar, and gradually adding 0.5 w/v % aqueous methylcellulose solution to give a suspension. For intravenous administration, the solution was administered into femoral vein of the rats at 0.1 mg/0.5 mL/kg (salt converted to free form). For oral administration, the suspension was administered to the rats at 1 mg/5 mL/kg (salt converted to free form). The cassette dosing method was used for the both administration routes, and the test compound was administered in the following manner. • Compound of Example 20 (intravenous: 8 compounds cassette administration, oral: 5 compounds cassette administration) • Compound of Example 22 (intravenous: 5 compounds cassette administration, oral: 5 compounds cassette administration) • Compound of Example 31 (intravenous: 10 compounds cassette administration, oral: 5 compounds cassette administration) • Compound of Example 36 (intravenous: 10 compounds cassette administration, oral: 5 compounds cassette administration) • Compound of Example 44 (intravenous: 10 compounds cassette administration, oral: 5 compounds cassette administration) • Compound of Example 55 (intravenous: 6 compounds cassette administration, oral: 4 compounds cassette administration) • Compound of Example 74 (intravenous: 10 compounds cassette administration, oral: 5 compounds cassette administration) • Compound of Example 76 (intravenous: 9 compounds cassette administration, oral: 4 compounds cassette administration) • Compound of Example 77 (intravenous: 10 compounds cassette administration, oral: 5 compounds cassette administration) • Compound of Example 102 (intravenous: 10 compounds cassette administration, oral: 5 compounds cassette administration) • Compound of Example 109 (intravenous: 7 compounds cassette administration, oral: 4 compounds cassette administration)
In the case of intravenous administration, blood samples were collected from the tail vein at 5, 10, 15, 30 min, 1, 2, 4, 8 hr after administration, an anticoagulation treatment with heparin sodium (Shimizu Pharmaceutical Co., Ltd.) was performed, and plasma was collected after centrifugation and subjected to the measurement of drug concentration. In the case of oral administration, blood samples were collected from the tail vein at 15, 30 min, 1, 2, 4, 8 hr after administration, an anticoagulation treatment with heparin sodium was performed, and plasma was collected after centrifugation and subjected to the measurement of drug concentration.
All drug concentrations were measured by LC-MS/MS analysis. For a pharmacokinetics test, the plasma (50 μL) was placed in a tube, acetonitrile (150 μL) containing internal standard solution was added and they were mixed on a vortex mixer. Thereafter, the mixture was centrifuged (5000 rpm, 5 min, 4° C.). The supernatant (60 μL) after centrifugation was added to 10 mmol/L ammonium formate (160 μL) added earlier and mixed therewith. This sample was injected to LC/MS/MS. […]

MDR1 = molecular target: T1, MDR1 (Homo sapiens, UniProt P08183); test: MDR1 membrane permeability test; type: in vitro ADME; conditions: pH 7.4, efflux ratio (ER), human MDR1-expressing LLC-PK1 cells, 37° C., read-out: MDR1 substrate screening 1 μM (MDRSUB1)/Ratio (NUMBER)
T1 construct: expressed in transfected cells; host or cells: LLC-PK1 (porcine kidney cells)
T1 sequence (P08183 whole entry): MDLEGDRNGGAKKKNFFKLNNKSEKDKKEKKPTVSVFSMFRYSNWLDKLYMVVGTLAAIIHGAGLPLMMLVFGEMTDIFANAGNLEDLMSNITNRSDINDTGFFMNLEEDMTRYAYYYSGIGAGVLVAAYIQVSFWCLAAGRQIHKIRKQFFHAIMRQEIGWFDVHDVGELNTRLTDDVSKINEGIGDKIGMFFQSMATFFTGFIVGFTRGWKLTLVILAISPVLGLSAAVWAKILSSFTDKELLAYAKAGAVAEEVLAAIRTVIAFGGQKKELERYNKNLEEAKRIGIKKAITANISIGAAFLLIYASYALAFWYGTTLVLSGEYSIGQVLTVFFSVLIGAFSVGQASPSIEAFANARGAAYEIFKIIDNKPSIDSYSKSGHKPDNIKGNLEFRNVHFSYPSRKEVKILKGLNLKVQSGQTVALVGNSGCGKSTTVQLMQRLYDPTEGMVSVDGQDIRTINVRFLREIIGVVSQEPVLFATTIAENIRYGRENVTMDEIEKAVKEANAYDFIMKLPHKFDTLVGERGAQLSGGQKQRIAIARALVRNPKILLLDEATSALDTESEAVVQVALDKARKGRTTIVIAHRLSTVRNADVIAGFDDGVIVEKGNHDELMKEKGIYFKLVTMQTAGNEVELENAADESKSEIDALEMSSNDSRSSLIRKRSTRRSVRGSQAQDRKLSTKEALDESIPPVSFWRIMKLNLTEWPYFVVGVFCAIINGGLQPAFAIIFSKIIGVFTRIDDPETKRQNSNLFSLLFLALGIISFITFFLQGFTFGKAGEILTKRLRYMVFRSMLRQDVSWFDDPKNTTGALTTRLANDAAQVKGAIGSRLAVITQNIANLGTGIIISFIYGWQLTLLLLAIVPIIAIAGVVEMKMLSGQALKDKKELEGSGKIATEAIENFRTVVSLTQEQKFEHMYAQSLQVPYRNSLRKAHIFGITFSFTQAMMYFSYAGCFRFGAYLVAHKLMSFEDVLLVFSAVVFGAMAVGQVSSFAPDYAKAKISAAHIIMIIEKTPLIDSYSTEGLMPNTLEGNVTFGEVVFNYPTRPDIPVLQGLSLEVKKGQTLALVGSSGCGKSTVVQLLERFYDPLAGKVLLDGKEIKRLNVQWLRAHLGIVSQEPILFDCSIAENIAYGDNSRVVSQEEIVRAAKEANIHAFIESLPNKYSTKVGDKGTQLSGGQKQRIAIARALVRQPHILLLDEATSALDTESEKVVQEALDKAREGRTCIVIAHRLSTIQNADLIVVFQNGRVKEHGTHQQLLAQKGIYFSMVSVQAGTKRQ
Description: MDR1 Membrane Permeability Test
When MDR1 is expressed in excess in LLC-PK1 cell, which is a polar cell, MDR1 is localized in apical membrane (A), thus promoting transcellular transport from the basement membrane side (B) toward direction A. When a ratio to the transcellular transport in the opposite direction is taken and a ratio to a control cell in which a mock vector has been introduced is further taken, an efflux ratio of MDR1 to simple diffusion (corrected efflux ratio) is calculated. Similarly, when a brain/plasma concentration ratio in Mdr1(−/−) mouse is divided by a brain/plasma concentration ratio in wild-type mouse, an efflux ratio of Mdr1 to simple diffusion in blood-brain barrier (BBB) (Kp, brain ratio, higher value means lower central nervous system permeability) is calculated. Adachi Y. et al. (Reference 1) has reported a positive correlation between corrected efflux ratio and Kp, brain ratio (FIG. 5(C)), and efflux ratio in MDR1 expressing cell and Kp, brain ratio (FIG. 5(B)).
To confirm the central nervous system permeability of the compounds of the present invention, a MDR1 membrane permeability test was performed by the following method.
Digoxin and lucifer yellow (LY) were purchased from Sigma-Aldrich, Diclofenac, colchicine and alprenolol were purchased from Wako Pure Chemical Industries, Ltd., and other reagents used were commercially available products of special grade.
Human MDR1-expressing LLC-PK1 cells were cultured according to the report of Takeuchi et al. (Reference 2). Human MDR1-expressing LLC-PK1 cells were cultured in 10% fetal bovine serum (Invitrogen), 500 μg/ml G418 (Invitrogen), 150 ng/ml colchicine-containing M199 medium (Invitrogen) under 5% CO2 conditions at 37° C.
Transcellular transport was performed according to the report of Sugimoto et al. (Reference 3). The cells were cultured for 3 days on HTS Transwell (registered trademark) 96 well permeable support (pore size 0.4 μm, 0.143 cm^2 surface area, Corning Life Sciences) having polyethylene terephthalate membrane on which the cells had been seeded at 3.45×10^4 cells/well. After preincubation in M199 medium (containing 10 mmol/L HEPES, 1% BSA, pH 7.4) for 30 min, a drug solution (10 μmol/L digoxin, 200 μmol/L LY, […]) dissolved in M199 medium was added to the apical side or basolateral side of the Transwell by 75 or 250 μL each and the cells were cultured under 5% CO2 conditions at 37° C. After 1 hr, the sample was collected from the side opposite to the side where the drug solution was added, and the concentration of the test compound was measured by LC-MS/MS. As an internal standard substance, 100 ng/mL alprenolol and diclofenac were used. The analysis conditions were as follows. • LC: UFLC LC-20 (Shimadzu) • MS/MS: API4000 (AB Sciex Instruments) • LC condition: gradient method
[formula] • Amount: amount of transported digoxin/well • Area: surface area of cell monolayer (0.143 cm^2) • C0: concentration of drug solution added • Time: incubation time

Compound | Tmax [1] [h] | clearance [1] [mL/min/kg] | MRT [1] [h] | efflux ratio at 1 h, 1 μM (MDR1)
Cn1cc(-c2ccc(C(F)c3cc(C(=O)N[C@H]4CCOC[C@@H]4O)nc4ccoc34)cc2)nn1 (single isomer, unassigned) [Example 55, 1,5-anhydro-2,3-dideoxy-3-(((7-(fluoro(4-(1-methyl-1H-1,2,3-triazol-4-yl)phenyl)methyl)furo[3,2-b]pyridin-5-yl)carbonyl)amino)-L-threo-pentitol] | 1.7 | 30.2 | 0.6 | 6.5
Cn1cc(-c2ccc(Cc3cc(C(=O)N[C@H]4CCOC[C@@H]4O)nc4ccoc34)cc2)nn1 [Example 20, 1,5-anhydro-2,3-dideoxy-3-(((7-(4-(1-methyl-1H-1,2,3-triazol-4-yl)benzyl)furo[3,2-b]pyridin-5-yl)carbonyl)amino)-L-threo-pentitol] | 2 | 4.1 | 1.8 | 4.8
O=C(N[C@H]1CCOC[C@@H]1O)c1cc(Cc2ccc(-n3cccn3)cc2)c2c(n1)CCO2 [Example 22, 1,5-anhydro-2,3-dideoxy-3-(((7-(4-(1H-pyrazol-1-yl)benzyl)-2,3-dihydrofuro[3,2-b]pyridin-5-yl)carbonyl)amino)-L-threo-pentitol] | 2 | 4.67 | 1.9 | 2.6
Cn1cc(-c2ccc(Cc3cc(C(=O)N[C@H]4CCOC[C@@H]4O)nc4c3OCC4)cc2)nn1 [Example 31, 1,5-anhydro-2,3-dideoxy-3-(((7-(4-(1-methyl-1H-1,2,3-triazol-4-yl)benzyl)-2,3-dihydrofuro[3,2-b]pyridin-5-yl)carbonyl)amino)-L-threo-pentitol] | 1 | 3.33 | 1.5 | 11
Cn1cc(-c2ccc(Cc3cc(C(=O)N[C@H]4CCOC[C@@H]4O)nc4ccoc34)cn2)cn1 [Example 36, 1,5-anhydro-2,3-dideoxy-3-(((7-((6-(1-methyl-1H-pyrazol-4-yl)pyridin-3-yl)methyl)furo[3,2-b]pyridin-5-yl)carbonyl)amino)-L-threo-pentitol] | 1.3 | 5.45 | 1.9 | 9.1
Cn1cc(-c2ccc(Cc3cc(C(=O)N[C@H]4CCOC[C@@H]4O)nc4c3OCC4)cc2)cn1 [Example 44, 1,5-anhydro-2,3-dideoxy-3-(((7-(4-(1-methyl-1H-pyrazol-4-yl)benzyl)-2,3-dihydrofuro[3,2-b]pyridin-5-yl)carbonyl)amino)-L-threo-pentitol] | 1.3 | 4.77 | 1.3 | 5.5

The next lines start with the values.

Tmax [1] [h] | clearance [1] [mL/min/kg] | MRT [1] [h] | efflux ratio at 1 h, 1 μM (MDR1) | Compound
0.8 | 14 | 0.9 | 11 | Cn1cnc(-c2ccc(Cc3cc(C(=O)N[C@H]4CCOC[C@@H]4O)nc4c3OCC4)cc2)c1 [Example 74, 1,5-anhydro-2,3-dideoxy-3-(((7-(4-(1-methyl-1H-imidazol-4-yl)benzyl)-2,3-dihydrofuro[3,2-b]pyridin-5-yl)carbonyl)amino)-L-threo-pentitol]
0.8 | 5.58 | 1.2 | 35 | COCCNC(=O)c1ccc(Cc2cc(C(=O)N[C@H]3CCOC[C@@H]3O)nc3c2OCC3)cc1F [Example 76, 1,5-anhydro-2,3-dideoxy-3-(((7-(3-fluoro-4-((2-methoxyethyl)carbamoyl)benzyl)-2,3-dihydrofuro[3,2-b]pyridin-5-yl)carbonyl)amino)-L-threo-pentitol]
1 | 8.13 | 0.8 | 25 | O=C(N[C@H]1CCOC[C@@H]1O)c1cc(Cc2ccc(C(=O)NC[C@@H]3CCCO3)c(F)c2)c2c(n1)CCO2 [Example 77, 1,5-anhydro-2,3-dideoxy-3-(((7-(3-fluoro-4-(((2S)-tetrahydrofuran-2-ylmethyl)carbamoyl)benzyl)-2,3-dihydrofuro[3,2-b]pyridin-5-yl)carbonyl)amino)-L-threo-pentitol]
1 | 11.7 | 0.9 | 20 | O=C(N[C@H]1CCOC[C@@H]1O)c1cc(Cc2ccc(C(=O)NC[C@@H]3CCCO3)c(F)c2)c2occc2n1 [Example 102, 1,5-anhydro-2,3-dideoxy-3-(((7-(3-fluoro-4-(((2S)-tetrahydrofuran-2-ylmethyl)carbamoyl)benzyl)furo[3,2-b]pyridin-5-yl)carbonyl)amino)-L-threo-pentitol]
1 | 6.73 | 1.5 | 10 | COCCNC(=O)c1ccc(Cc2cc(C(=O)N[C@H]3CCOC[C@@H]3O)nc3ccoc23)cc1F [Example 109, 1,5-anhydro-2,3-dideoxy-3-(((7-(3-fluoro-4-((2-methoxyethyl)carbamoyl)benzyl)furo[3,2-b]pyridin-5-yl)carbonyl)amino)-L-threo-pentitol]
